From ChEMBL document CHEMBL1201862, “PubChem BioAssay data set” (2004)
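Exposure lasted 48 hours, with cells grown in 96-well plates and compounds tested at five concentrations. GI50: concentration for 50% inhibition of growth.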 The source made the active and inactive calls. Cut-off read from the data, not from the text of the source: active = GI50 up to about 1.1 µM and inactive = higher.

Assays:
Assay in all cases: DTP human tumour cell line panel, 48 h
[1] = test system: Malme-3M
[2] = test system: KM12
[3] = test system: SN12C
[4] = test system: SK-MEL-28
[5] = test system: NCI-H226
[6] = test system: HCC 2998
[7] = test system: MDA-N
[8] = test system: RXF 393
[9] = test system: SW-620
[10] = test system: SK-MEL-5
[11] = test system: NCI-H23
[12] = test system: UACC-257
[13] = test system: HCT-15
[14] = test system: A498
[15] = test system: UO-31
[16] = test system: U-251
[17] = test system: SK-MEL-2
[18] = test system: OVCAR-5
[19] = test system: NCI/ADR-RES
[20] = test system: SNB-19

`Cc1cc2nc(CC(C(F)(F)F)C(F)(F)F)oc2cc1C` was tested, and the GI50 [1] was 3.34 µM (inactive), the GI50 [2] was 3 µM (inactive) and the GI50 [3] was 1.03 µM (active). The GI50 [4] was 3.24 µM (inactive), the GI50 [5] was 1.88 µM (inactive) and the GI50 [6] was 3.56 µM (inactive). The GI50 [7] was 1.91 µM (inactive), the GI50 [8] was 2.51 µM (inactive) and the GI50 [9] was 0.608 µM (active). For the same compound, the GI50 [10] was 4.32 µM (inactive), the GI50 [11] was 1.37 µM (inactive) and the GI50 [12] was 4.46 µM (inactive). The GI50 [13] was 3.47 µM, the GI50 [14] was 5.71 µM (inactive) and the GI50 [15] was 7.69 µM (inactive). The GI50 [16] was 3.15 µM (inactive), the GI50 [17] was 2.81 µM (inactive) and the GI50 [18] was 7.41 µM (inactive). The GI50 [19] was 1.71 µM (inactive) and the GI50 [20] was 5.09 µM (inactive).

With `O=C1c2ccccc2-c2c1c(-c1cccc(Br)c1)nc1ccc3ccccc3c21` the GI50 [1] was > 100 µM (inactive), the GI50 [2] was > 100 µM (inactive) and the GI50 [3] was > 100 µM (inactive). The GI50 [4] was > 100 µM (inactive), the GI50 [5] was > 100 µM (inactive) and the GI50 [6] was > 100 µM (inactive). For the same compound, the GI50 [7] was > 100 µM (inactive), the GI50 [8] was > 100 µM (inactive) and the GI50 [9] was > 100 µM (inactive). For the same compound, the GI50 [11] was > 100 µM (inactive), the GI50 [12] was > 100 µM (inactive) and the GI50 [13] was greater than 100 µM. The GI50 [14] was > 100 µM (inactive), the GI50 [15] was > 100 µM (inactive) and the GI50 [16] was > 100 µM (inactive). The GI50 [17] was > 100 µM (inactive), the GI50 [18] was > 100 µM (inactive) and the GI50 [19] was > 100 µM (inactive). For the same compound, the GI50 [20] was > 100 µM (inactive).

In the case of `CSc1cc(Cl)c(C)cc1S(=O)(=O)NC(=O)NNc1cnc2ccccc2n1`, the GI50 [1] is reported as > 100 µM (inactive), the GI50 [2] is reported as > 100 µM (inactive) and the GI50 [3] is reported as > 100 µM (inactive). For the same compound, the GI50 [4] was > 100 µM (inactive), the GI50 [5] was > 100 µM (inactive) and the GI50 [6] was > 100 µM (inactive). The GI50 [7] was > 100 µM (inactive), the GI50 [8] was > 100 µM (inactive) and the GI50 [9] was > 100 µM (inactive). For the same compound, the GI50 [10] was > 100 µM (inactive), the GI50 [13] was greater than 100 µM and the GI50 [14] was > 100 µM (inactive). The GI50 [16] was > 100 µM (inactive), the GI50 [17] was > 100 µM (inactive) and the GI50 [18] was > 100 µM (inactive). The GI50 [19] was > 100 µM (inactive) and the GI50 [20] was > 100 µM (inactive).

`COc1cc2c(cc1OC(=O)c1cc3ccccc3[nH]1)N=C[C@@H]1CCCN1C2=O` was tested, and the GI50 [1] was 0.398 µM (active), the GI50 [2] was 0.433 µM (active) and the GI50 [3] was 0.221 µM (active). For the same compound, the GI50 [4] was 0.531 µM (active), the GI50 [5] was 0.809 µM (active) and the GI50 [6] was 0.269 µM (active). The GI50 [7] was 0.194 µM (active), the GI50 [8] was 0.165 µM (active) and the GI50 [9] was 0.325 µM (active). For the same compound, the GI50 [10] was 0.175 µM (active), the GI50 [11] was 0.37 µM (active) and the GI50 [12] was 0.268 µM (active). The GI50 [13] was 0.475 µM, the GI50 [14] was 0.219 µM (active) and the GI50 [15] was 0.129 µM (active). The GI50 [16] was 0.292 µM (active), the GI50 [17] was 0.224 µM (active) and the GI50 [18] was 0.255 µM (active). The GI50 [19] was 0.461 µM (active) and the GI50 [20] was 0.352 µM (active).

With `Cc1cc(S(=O)(=O)NC2=Nc3cccc(F)c3CN2)c(S)cc1Cl` the GI50 [1] was > 100 µM (inactive), the GI50 [2] was 45.7 µM (inactive) and the GI50 [3] was > 100 µM (inactive). The GI50 [4] was 95.9 µM (inactive), the GI50 [5] was > 100 µM (inactive) and the GI50 [6] was > 100 µM (inactive). The GI50 [7] was 66.4 µM (inactive), the GI50 [8] was > 100 µM (inactive) and the GI50 [9] was 53.6 µM (inactive). The GI50 [10] was 22 µM (inactive), the GI50 [12] was > 100 µM (inactive) and the GI50 [13] was 69.5 µM. For the same compound, the GI50 [14] was > 100 µM (inactive), the GI50 [15] was 87.5 µM (inactive) and the GI50 [16] was 44.5 µM (inactive). For the same compound, the GI50 [17] was 35.6 µM (inactive), the GI50 [18] was > 100 µM (inactive) and the GI50 [19] was 49.4 µM (inactive). The GI50 [20] was 23.2 µM (inactive).

`COc1c(C)c2c(c(=O)c3c(C)cccc3n2C)c2c1c(=O)c1c(C)cccc1n2C` was tested, and the GI50 [1] was > 10 µM (inactive), the GI50 [2] was > 10 µM (inactive) and the GI50 [3] was > 10 µM (inactive). The GI50 [4] was > 10 µM (inactive), the GI50 [5] was > 10 µM (inactive) and the GI50 [6] was > 10 µM (inactive). The GI50 [7] was > 10 µM (inactive), the GI50 [8] was > 10 µM (inactive) and the GI50 [10] was > 10 µM (inactive). For the same compound, the GI50 [11] was > 10 µM (inactive), the GI50 [12] was > 10 µM (inactive) and the GI50 [13] was greater than 10 µM. For the same compound, the GI50 [14] was > 10 µM (inactive), the GI50 [15] was > 10 µM (inactive) and the GI50 [16] was > 10 µM (inactive). For the same compound, the GI50 [17] was > 10 µM (inactive), the GI50 [18] was > 10 µM (inactive) and the GI50 [19] was 9.18 µM (inactive). For the same compound, the GI50 [20] was > 10 µM (inactive).

In the case of `COC(=O)[C@H](CC(C)C)NC1=C(Cl)C(=O)c2c(O)ccc(O)c2C1=O`, the GI50 [1] is reported as 0.887 µM (active), the GI50 [2] is reported as 6.43 µM (inactive) and the GI50 [3] is reported as > 10 µM (inactive). For the same compound, the GI50 [4] was > 10 µM (inactive), the GI50 [5] was > 10 µM (inactive) and the GI50 [6] was > 10 µM (inactive). The GI50 [7] was 8.73 µM (inactive), the GI50 [8] was > 10 µM (inactive) and the GI50 [9] was 9.64 µM (inactive). For the same compound, the GI50 [10] was > 10 µM (inactive), the GI50 [11] was 6.53 µM (inactive) and the GI50 [12] was > 10 µM (inactive). For the same compound, the GI50 [13] was 3.05 µM, the GI50 [14] was > 10 µM (inactive) and the GI50 [16] was > 10 µM (inactive). For the same compound, the GI50 [17] was > 10 µM (inactive), the GI50 [18] was > 10 µM (inactive) and the GI50 [19] was > 10 µM (inactive). For the same compound, the GI50 [20] was > 10 µM (inactive).

`COC(OC)C1(c2ccccc2)Oc2ccccc2C1=O` (stereo not drawn) was tested, and the GI50 [1] was > 100 µM (inactive), the GI50 [2] was > 100 µM (inactive) and the GI50 [3] was > 100 µM (inactive). The GI50 [4] was > 100 µM (inactive), the GI50 [5] was > 100 µM (inactive) and the GI50 [6] was > 100 µM (inactive). The GI50 [7] was > 100 µM (inactive), the GI50 [8] was > 100 µM (inactive) and the GI50 [9] was > 100 µM (inactive). The GI50 [10] was 65.6 µM (inactive), the GI50 [11] was 50.1 µM (inactive) and the GI50 [12] was > 100 µM (inactive). For the same compound, the GI50 [13] was greater than 100 µM, the GI50 [14] was > 100 µM (inactive) and the GI50 [16] was > 100 µM (inactive). The GI50 [17] was > 100 µM (inactive), the GI50 [18] was > 100 µM (inactive) and the GI50 [19] was 80.7 µM (inactive). The GI50 [20] was > 100 µM (inactive).

With `O=C1CC(=O)NC(NN2C(=O)/C(=C/C(=O)c3ccco3)N=C2c2ccccc2)=N1` the GI50 [1] was 7 µM (inactive), the GI50 [2] was 30.5 µM (inactive) and the GI50 [3] was > 100 µM (inactive). For the same compound, the GI50 [4] was > 100 µM (inactive), the GI50 [5] was > 100 µM (inactive) and the GI50 [6] was > 100 µM (inactive). For the same compound, the GI50 [7] was 77.3 µM (inactive), the GI50 [8] was 66.8 µM (inactive) and the GI50 [9] was 73.6 µM (inactive). For the same compound, the GI50 [11] was > 100 µM (inactive), the GI50 [12] was 92.3 µM (inactive) and the GI50 [13] was greater than 100 µM. The GI50 [14] was > 100 µM (inactive), the GI50 [15] was 57.8 µM (inactive) and the GI50 [16] was 47.5 µM (inactive). For the same compound, the GI50 [17] was 92.7 µM (inactive), the GI50 [18] was > 100 µM (inactive) and the GI50 [19] was 41.1 µM (inactive).

`O=c1c2ccccc2nc(-c2ccccc2)n1/N=C/c1ccccc1[N+](=O)[O-]` was tested, and the GI50 [1] was > 100 µM (inactive), the GI50 [2] was 57.4 µM (inactive) and the GI50 [3] was > 74.8 µM (inactive). For the same compound, the GI50 [4] was > 100 µM (inactive), the GI50 [5] was 61.1 µM (inactive) and the GI50 [6] was > 100 µM (inactive). For the same compound, the GI50 [7] was > 100 µM (inactive), the GI50 [8] was 19.3 µM (inactive) and the GI50 [9] was > 100 µM (inactive). For the same compound, the GI50 [10] was > 75.2 µM (inactive), the GI50 [11] was 15.3 µM (inactive) and the GI50 [12] was > 100 µM (inactive). For the same compound, the GI50 [13] was greater than 100 µM, the GI50 [14] was > 75.2 µM (inactive) and the GI50 [16] was 16.1 µM (inactive). The GI50 [17] was 74.5 µM (inactive), the GI50 [18] was > 100 µM (inactive) and the GI50 [19] was 16.7 µM (inactive). The GI50 [20] was 17 µM (inactive).

For `CC(C)C[C@H](NC(=O)[C@H](CCc1ccccc1)NC(=O)c1ccc2ccccc2n1)B(O)O`, the GI50 [1] was < 0.01 µM (active), the GI50 [2] was 0.0644 µM (active) and the GI50 [3] was < 0.01 µM (active). The GI50 [4] was < 0.01 µM (active), the GI50 [5] was < 0.01 µM (active) and the GI50 [6] was 0.0292 µM (active). The GI50 [7] was < 0.01 µM (active), the GI50 [8] was < 0.01 µM (active) and the GI50 [9] was < 0.01 µM (active). For the same compound, the GI50 [10] was < 0.0136 µM (active), the GI50 [11] was 0.0367 µM (active) and the GI50 [12] was < 0.0156 µM (active). The GI50 [13] was 0.0883 µM, the GI50 [14] was 0.0471 µM (active) and the GI50 [15] was 0.0845 µM (active). For the same compound, the GI50 [16] was 0.178 µM (active), the GI50 [17] was < 0.01 µM (active) and the GI50 [18] was < 0.0268 µM (active). For the same compound, the GI50 [19] was 0.706 µM (active).
